Patent US20070010454A1, “Method for treating tumor cells resulting in minimal liver toxicity” (priority 2005, published 2007)

Legend:
tyrosinase [1] = experiment: UV-VIS spectroscopy of tyrosinase mediated metabolism of alkoxyphenols; assay type: biochemical; conditions: alkoxyphenol 100 µM, tyrosinase 20 U/mL; compared with the other alkoxyphenols
Experimental: UV-VIS spectroscopy of tyrosinase mediated metabolism of alkoxyphenols The spectra of a solution containing alkoxyphenol (100 µM) and tyrosinase (20 U/mL) were recorded in the absence and presence of GSH (200 µM) using a GBC UV-Visible spectral spectrophotometer (GC Scientific, Australia). The spectra of the mixture were obtained when GSH was added to the solution either before or after the addition of tyrosinase. The control spectrum was that of the respective alkoxyphenol solution (100 µM) in phosphate buffer [0.1 M (pH 7.4) containing DETAPAC (1 mM)].

tyrosinase [2] = experiment: Tyrosinase mediated GSH depletion assay; assay type: biochemical; conditions: for GSH depleted in tyrosinase/O2 metabolizing system, average equivalent: average over the four compounds named; for GSH depleted in tyrosinase/O2 metabolizing system (in words) / GSH depleted in tyrosinase/O2 metabolizing system: alkoxyphenol 100 µM, GSH 200 µM
Experimental: Tyrosinase (10 µL; 2500 U/mL) was added to a mixture of alkoxyphenol (100 µM) and GSH (200 µM) in a final volume of 1 mL phosphate buffer (0.1 M, pH 7.4, DETAPAC 1 mM). The mixture was pre-incubated for 30, 90, and 180 min at 37° C. A 250 µL aliquot was added to trichloroacetic acid (25 µL; 30% w/v), vortexed and left at room temperature for 5 min. A 100 µL aliquot of the supernatant was then added to a mixture of Ellman's reagent 5,5′-dithiobis-(2-nitrobenzoic acid) DTNB (25 µL; 2 mg/mL) and Tris/HCl buffer (875 µL; 0.1 M, pH 8.94), and then vortexed. […] The standard curve for GSH measurement gave a regression coefficient of greater than 0.99 over the range of 5-200 µM GSH concentrations (data not shown).

B16-F0 melanoma cells = experiment: MTT cytotoxicity assay in B16-F0 melanoma cell line; assay type: cell-based, mouse
Experimental: The mouse B16-F0 cell line was obtained from American Type Culture Collection, USA. A frozen B16-F0 cell vial was washed twice with DMEM media before culturing in 8 mL DMEM supplemented with fetal calf serum (FCS) (10%) and streptomycin/penicillin (100 U/mL) in a T-25 flask (17). All the cell culture processes were carried out in a type II vertical laminar air flow chamber. The B16-F0 cultures were kept at 37° C. under a 5% CO2 atmosphere in a TS Autoflow CO2 Water-Jacketed Incubator (NUAIRE, USA). The culture medium was changed when acidification was indicated by the pH indicator and when needed. To detach the cells from the flask, the media was first removed from the flask. The remaining media was then washed out using sterile phosphate buffered saline (PBS) (2-3 mL). Subsequently, Versene (2-5 mL) was added to the flask and the sample was incubated for 2-3 min in the incubator to provide time for cells to detach. The detached cells were rinsed with ˜10 mL of pre-warmed sterile PBS to dilute Versene. The mixture was transferred into a 50 mL tube. The flask was additionally rinsed with sterile PBS and the content was added to the rest of the cells collected. The cells were then spun down at 800 RPM (Beckman GPR Centrifuge, USA) for 3-5 min. The PBS-Versene mixture was aspirated off. Pelletted cells were then re-suspended in DMEM media (supplemented by FCS 10% and antibiotics 100 U/mL) followed by splitting the mixture into one T-75 flask containing 30 mL media (25% of the media was supplemented from the previous culture step as conditioning media).
To evaluate cytotoxicity, cells were obtained from exponentially growing 90-95% confluent cultures and seeded at 12,500 cells/well in 96-well plates. The cells were kept in 100 µL fresh DMEM media (supplemented by FCS 10% and antibiotics 100 U/mL) for 24 h to allow cell adhesion and environmental adaptation. Subsequently, the cells were treated with additional 150 µL DMEM (supplemented with FCS 10% and antibiotics 100 U/mL) containing various concentrations of alkoxyphenols for 1-4 days. At 24 h interval, the medium was removed and the wells were washed three times using DMEM media alone before adding 40 µL of 2 mg/mL yellow tetrazolium dye (3-(4,5-dimethylthiazolyl-2)-2,5-diphenyltetrazolium bromide) (MTT) (17). The plates were returned to the incubator for a period of 4 h. […] The plates were stored at room temperature in a dark place for an additional 2 h before reading them at 570 nm using XFluor Plate Reader (Tecan US, Inc, USA). […]
Lethal concentrations (LC) which can cause 10% and 50% of the cell death were calculated from the linear regression equation derived from graphing the viability of the cells at day 2 (on x axis) versus the concentration of the drug (on y axis).

melanoma = conditions: cited from earlier work
[3] = tested on: rat liver microsomal P450; experiment: Microsomal mediated GSH depletion assay (rat liver microsomes/NADPH/O2); assay type: in vitro ADME
Experimental: Adult male Sprague-Dawley rats, 250-300 g, were obtained from Charles River Laboratories, USA, fed ad libitum, were allowed to acclimatize for 1 week on clay chip bedding in a room with a 12 h light photocycle, an environmental temperature of 21-23° C. and 50-60% relative humidity.
The rats were anesthetized by sodium pentobarbital (60 mg/kg) before surgery in order to prepare the animal before liver removal. Hepatic microsomes were prepared by differential centrifugation as described previously (14). Briefly, the liver was removed and weighed in a beaker on ice. The liver was cut into pieces and washed by cold KCl (154 mM): Tris/HCl (50 mM, pH 7.4) buffer solution then suspended into 4 volumes of KCl:Tris/HCl buffer. The tissue was gently homogenized using an electrical homogenizer and subsequently by a handheld glass tissue grinder before centrifuging at 1935 g (Beckman Avanti J-251, Beckman Rotor-JA-25.5) at 4° C. for 15 mm to remove tissue and cell debris. The supernatant was centrifuged at 12,100 g at 4° C. for 15 min to remove subcellular organelles followed by centrifigation at 100,000 g (Beckman Optima LE-80K, Beckman Rotor-45 Ti) at 4° C. for 1 h. The supernatant was discarded and micorsomes were separated and suspended in 5 mL Tris/HCl buffer (100 mM, pH 7.4) containing 1 mM DETAPAC. The mixture was homogenized using a handheld glass tissue grinder after which an additional 15 mL Tris HCl buffer was added and the solution was aliquoted in 750 µL and stored at −70° C. for subsequent use. Microsomal protein content was determined by a modified Lowry method (15).
The amount of GSH conjugates formed were determined colorimetrically using Ellman's reagent 5,5′-dithiobis-(2-nitrobenzoic acid) (DTNB) (13). Incubation mixtures contained in a final volume of 1 mL phosphate buffer (0.1 M, pH 7.4, DETAPAC 1 mM), 2 mg/mL rat liver microsomes, 200 µM GSH, 1 mM NADPH, and 100 µM alkoxyphenols. The mixtures were gently mixed at 37° C. from which 250 µL aliquots were taken at 30, 60, and 90 min time-interval points into Eppendorf tubes containing 25 µL trichloroacetic acid (30% w/v). Following protein precipitation and centrifugation for 5 min, the GSH levels of a 100 µL aliquot of the supernatant was determined by the addition of 0.1 M Tris/HCl buffer, pH 8.94 (875 µL), and 2 mg/mL DTNB (25 µL). The reduced DTNB formed was determined at 412 nm on a GBC spectral spectrophotometer.

isolated rat hepatocytes = conditions: reactive metabolite of 4-HA formed by liver P450s; cited from earlier work

With CC(C)Oc1ccccc1O [2-iPP, 2-iso-propoxyphenol] the “fold lower rate of oxidation by tyrosinase/O2 metabolizing system” value (tyrosinase [1]) was 20 fold, the “GSH depleted in tyrosinase/O2 metabolizing system, average equivalent” value (from here on “GSH depleted … average equivalent”) (tyrosinase [2]; 90 min incubation) was 0.15 molar per mole and the “fold less toxic than the toxic value calculated from Eq. 2 (QSTR)” value (B16-F0 melanoma cells; LC50 day 2, B16-F0) was 3.6 fold.
In the case of CCOc1ccc(O)cc1 [4-EP], the “GSH depleted in tyrosinase/O2 metabolizing system (in words)” value (tyrosinase [2]; 90 min incubation) is reported as “mole per mole basis”.
For COc1ccc(O)cc1 [4-HA, 4-hydroxyanisole, reference compound], the “clinical liver toxicity (in words)” value (melanoma; clinical trials terminated) is listed as “serious liver damage occurred”, the “clinical effect (in words)” value (melanoma; topical application and intra-arterial infusions into patients' legs) is listed as “Depigmentation and tumor shrinkage” and the “GSH depleted in tyrosinase/O2 metabolizing system” value (tyrosinase [2]; 30 min incubation) is listed as 1.8 molecular equivalent of GSH per mole. The “fold more toxic than the toxic value calculated from Eq. 2 (QSTR)” value (B16-F0 melanoma cells; LC50 day 2, B16-F0) was 1.7 fold.
With CC(C)COc1ccc(O)cc1 [4-iBP] the “GSH depleted in tyrosinase/O2 metabolizing system” value (tyrosinase [2]; 90 min incubation) was 1.8 molecular equivalent of GSH per mole.
In the case of CC(C)Oc1ccc(O)cc1 [4-iPP], the “GSH depleted … average equivalent” value (tyrosinase [2]; 90 min incubation) is reported as 0.15 molar per mole.
In the case of CCCCOc1ccc(O)cc1 [4-nBP], the “GSH depleted in tyrosinase/O2 metabolizing system” value (tyrosinase [2]; 90 min incubation) is reported as 1.8 molecular equivalent of GSH per mole.
In the case of CCCCCCOc1ccc(O)cc1 [4-nHP, 4-n-hexyloxyphenol], the “metabolism by liver P450 microsomal preparation (in words)” value [3] is reported as “minimal metabolism”, the “glutathione depletion in microsomal preparations (in words)” value ([3]; at calculated LC10 and LC50 lethal concentrations for B16-F0) is reported as “minimally depleting glutathione” and the “GSH depleted in tyrosinase/O2 metabolizing system” value (tyrosinase [2]; 90 min incubation) is reported as 1.8 molecular equivalent of GSH per mole. For the same molecule, the “toxicity towards B16-F0 cells (in words)” value (B16-F0 melanoma cells; MTT assay, 1-4 days) was “greatest toxicity”.
In the case of CCCOc1ccc(O)cc1 [4-nPP], the “GSH depleted in tyrosinase/O2 metabolizing system (in words)” value (tyrosinase [2]; 90 min incubation) is reported as “mole per mole basis”.
For CCC(C)Oc1ccc(O)cc1 (stereo not shown) [4-sBP], the “GSH depleted … average equivalent” value (tyrosinase [2]; 90 min incubation) was 0.15 molar per mole.
With CC(C)(C)Oc1ccc(O)cc1 [4-tBP, 4-t-butoxyphenol] the “fold lower rate of oxidation by tyrosinase/O2 metabolizing system” value (tyrosinase [1]) was 20 fold, the “GSH depletion by microsomal P450/NADPH/O2, fold less than 4-HA” value ([3]; 100 µM concentration) was 2.3 fold and the “glutathione depletion by microsomal P450 system (in words)” value ([3]; 100 µM concentration) was “lowest rate of GSH depletion”. For the same molecule, the “glutathione depletion by microsomal P450 system (in words)” value ([3]; 100 µM concentration, listed as 4-t-butoxyphenol) was “lowest amount of glutathione depletion”, the “GSH depleted by rat liver microsomes/NADPH/O2” value ([3]; 90 min incubation, alkoxyphenol 100 µM, 2 mg/mL microsomes, 200 µM GSH) was 0.5 equivalents of GSH per mole and the “GSH depleted … average equivalent” value (tyrosinase [2]; 90 min incubation) was 0.15 molar per mole. The “fold less toxic than the toxic value calculated from Eq. 2 (QSTR)” value (B16-F0 melanoma cells; LC50 day 2, B16-F0) was 3.6 fold.
For O=C1C=CC(=O)C=C1 [p-quinone], the “toxicity to isolated rat hepatocytes (in words)” value (isolated rat hepatocytes) is given as “highly toxic”.
